For data set [1], the system named is Klebsiella pneumoniae IF03317. Put plainly: Antibacterial activity in vitro, agar plate dilution method (MIC). In kind it is cell-based. The conditions noted are these: 10^6 cells/ml, Mueller Hinton agar, 37° C., 20 hours. The method, then:
(§1) Antibacterial activity in vitro was determined in accordance with the agar plate dilution method. A platinum loop each of test bacteria (10^6 cells/ml), cultured in Mueller Hinton broth, was inoculated on Mueller Hinton agar plates which contained test compounds at various concentrations. After cultivating at 37° C. for 20 hours, the minimum inhibitory concentration (MIC μg/ml) was determined.

The test system of data set [2] is Escherichia coli 67. The description is as above. The data set is classed as cell-based. The conditions noted are these: 10^6 cells/ml, Mueller Hinton agar, 37° C., 20 hours. The method, then: as §1
Data set [3] deals with Serratia marcescens IF03759. The data set is described as above. In kind it is cell-based. The settings on record: 10^6 cells/ml, Mueller Hinton agar, 37° C., 20 hours. The method, then:
as §1

The test system of data set [4] is Staphylococcus aureus Smith. The description is as above. The data set is classed as cell-based. The settings on record: 10^6 cells/ml, Mueller Hinton agar, 37° C., 20 hours. The method, then:
as §1

A further data set relates to Proteus morganii IF03848. Described as above. The data set is classed as cell-based. The settings on record: Morganella morganii, 10^6 cells/ml, Mueller Hinton agar, 37° C., 20 hours. How it is done:
as §1

For data set [5], the system named is Pseudomonas aeruginosa IF03445. The description is as above. In kind it is cell-based. The conditions noted are these: 10^6 cells/ml, Mueller Hinton agar, 37° C., 20 hours. How it is done: as §1
Data set [6] relates to Klebsiella pneumoniae IF03317. Put plainly: Protection ability against systemic infection. The data set is classed as in vivo. The settings on record: IF03317, iv, 168 h, ICR mice, intraperitoneal infection, compound intravenously 1 hour after infection, survival at 1 week. How it is done:
(§2) Protection ability against systemic infection was determined as follows. An aqueous suspension of test bacteria was intraperitoneally injected into groups of 10 four week old ICR mice. One hour after the infection, test compounds were intravenously administered. The number of surviving mice was counted 1 week after injection to determine the dose at which 50% of the test animals were alive (ED50 :mg/kg).

The test system of data set [7] is Escherichia coli 67. Kind of data set: Protection ability against systemic infection. The data set is classed as in vivo. The conditions noted are these: Escherichia coli, 67, iv, 168 h; ICR mice, intraperitoneal infection, compound intravenously 1 hour after infection, survival at 1 week. The method, then: as §2
The subject of data set [8] is Pseudomonas aeruginosa IF03445. Kind of data set: Protection ability against systemic infection. The data set is classed as in vivo. The settings on record: IF03445, iv, 168 h, ICR mice, intraperitoneal infection, compound intravenously 1 hour after infection, survival at 1 week. The method, then:
as §2

A short description of data set [9]: LD50 determined in accordance with the Probit method. The conditions noted are these: in vivo, iv. How it is done:
Next, LD50 of representative examples of the compounds of the present invention is shown in Table 3 wherein LD50 was determined in accordance with the Probit method.

Converted amounts (≈) assume the structure as drawn. Some results are limits rather than exact numbers.

Usually MIC stands for the least concentration at which growth counts as inhibited. Lower therefore signals inhibition by little substance. For orientation: ED50 means the midpoint of the dose-response relation. High values mean weaker potency, low ones greater potency. A word on the LD50: it is the dose expected to kill half of the subjects tested. A higher LD50 goes with a less toxic substance.

For `CO/N=C(\C(=O)N[C@@H]1C(=O)N2C(C(=O)O)=C(CSc3cc(C)nc4ncnn34)CS[C@H]12)c1csc(N)n1` [Compound 1, (6R,7R)-7-[2-(2-amino-4-thiazolyl)-2-(Z-methoxyimino)acetamido]-3-[(5-methyl-s-triazolo[1,5-a]pyrimidin-7-yl)thiomethyl]-8-oxo-5-thia-1-azabicyclo[4.2.0] oct-2-ene-2-carboxylic acid], the MIC was under 0.05 µg/mL in data set [1]; under 0.05 µg/mL against Escherichia coli 67 [2]; 0.2 µg/mL (≈ 0.356 µM) in [3]; 1.57 µg/mL (≈ 2.8 µM) in data set [4]; 0.78 µg/mL (≈ 1.39 µM) in the data set with Proteus morganii IF03848; 50 µg/mL (≈ 89 µM) in data set [5]. Moreover, the ED50 came to 0.1 mg/kg in data set [6], 0.7 mg/kg in the data set on Escherichia coli 67 [7] and 780 mg/kg in [8]. For the same compound, the LD50 in data set [9] was over 1000 mg/kg.

Consider `CO/N=C(\C(=O)N[C@@H]1C(=O)N2C(C(=O)O)=C(CSc3cc(C)nc4nc(C(=O)O)nn34)CS[C@H]12)c1csc(N)n1` [Compound 2, (6R,7R)-7-[2-(2-amino-4-thiazolyl)-2-(Z-methoxyimino)acetamido]-3-[(2-carboxy-5-methyl-s-triazolo[1,5-a]pyrimidin-7-yl)thiomethyl]-8-oxo-5-thia-1-azabicyclo[4.2.0]oct-2-ene-2-carboxylic acid], for which the minimum inhibitory concentration (MIC) is under 0.05 µg/mL in data set [1]; under 0.05 µg/mL against Escherichia coli 67 [2]; under 0.05 µg/mL in [3]; 1.57 µg/mL (≈ 2.59 µM) in [4]; 0.2 µg/mL (≈ 0.33 µM) in the data set with Proteus morganii IF03848; 12.5 µg/mL (≈ 20.6 µM) in data set [5]. For the same compound, the ED50 is 0.1 mg/kg in data set [6], 0.8 mg/kg in the data set with Escherichia coli 67 [7] and 360 mg/kg in data set [8]. The same compound registered a median lethal dose (LD50) in data set [9] of over 1000 mg/kg.

On to `CO/N=C(\C(=O)N[C@@H]1C(=O)N2C(C(=O)O)=C(CSc3cc(C(=O)O)nc4ncnn34)CS[C@H]12)c1csc(N)n1` [Compound 6, (6R,7R)-7-[2-(2-amino-4-thiazolyl)-2-(Z-methoxyimino)acetamido]-3-[(5-carboxy-s-triazolo[1,5-a]pyrimidin-7-yl)thiomethyl]-8-oxo-5-thia-1-azabicyclo [4.2.0]oct-2-ene-2-carboxylic acid], for which the MIC in data set [1] is under 0.05 µg/mL; in the data set on Escherichia coli 67 [2], under 0.05 µg/mL; in [3], 0.2 µg/mL (≈ 0.338 µM); in data set [4], 1.57 µg/mL (≈ 2.65 µM); against Proteus morganii IF03848, 0.2 µg/mL (≈ 0.338 µM); in [5], 6.25 µg/mL (≈ 10.6 µM). Further, the ED50 was determined as 0.1 mg/kg in data set [6], 0.8 mg/kg in the data set with Escherichia coli 67 [7] and 230 mg/kg in data set [8]. Moreover, the LD50 in data set [9] was over 1000 mg/kg.

Values taken from patent publication US5064953A, “Intermediates cephalosporin derivatives” (Mochida Pharmaceutical Co., Ltd., priority 1983, dated 1991).
